For assay [1], the system named is MCF-7 human breast cancer. Briefly: Cell number growth over six days, MCF-7 cells. Format: cell-based. Conditions: MCF-7, 25 nM RAD001, 5 μM API-2 or combination.
Assay [2] deals with Akt phosphorylation. Put plainly: Western blot of MCF-7 lysates for phosphorylated Akt, S6, p70-S6K. It counts as cell-based, human. As to the method: (A) OVCAR-3 human ovarian cancer and (B) MCF-7 human breast cancer cell lines were treated with mTOR inhibitors rapamycin (OVCAR-3 cells only) or RAD001 (MCF-7 cells only). Cell lysates were probed for phosphorylated and total Akt, and phosphorylated and total S6 at the indicated time points. […] Akt substrate FKHRL1, an apoptotic protein, was also detected.
(A) OVCAR-3 and (B) MCF-7 cells were treated with rapamycin (OVCAR-3 cells only), RAD001 (MCF-7 cells only), API-2, or a combination of API-2 with either rapamycin or RAD001. Akt phosphorylation increased in both cell lines after either rapamycin or RAD001 treatment.
Results of Western Blot for phosphorylated Akt (p-Akt) indicate C-13 and A2780CP cells had high levels of p-Akt. Further, cell survivability after chemotherapy appears directly connected to Akt up-regulation as C-13 had both the highest p-Akt and survivability. […] This caused an increase in p-Akt within 1 hour of treatment, confirming a relationship between p-Akt and cell survival after chemotherapy.
(A western blot detects proteins with antibodies after separation by electrophoresis.)

For assay [3], the system named is C-13 cells. Put plainly: MTT cell survival assay, CDDP-resistant C-13 cells. Conditions: C-13, increasing amounts of CDDP alone, MTT 24 hr. A general note: Tetrazolium dyes change colour on reduction, which living cells bring about.
Method: (§1) CDDP-resistant ovarian cancer cell lines A2780CP and C-13 were treated with CDDP at indicated concentrations alone, or in combination with 10 μM API-2. Cell survival was determined 24 hr later by MTT assay.
A2780CP and C-13 cells were treated with increasing amounts of CDDP alone or in combination with 10 μM API-2.
The test system of assay [4] is A2780CP cells. Put plainly: MTT cell survival assay, CDDP-resistant A2780CP cells. As to conditions: increasing amounts of CDDP alone, MTT 24 hr.
Method: as §1
API-2 was further investigated to determine whether it can overcome CDDP resistance by blocking Akt signaling pathways. A2780CP and C-13 cells were treated with increasing amounts of CDDP alone or in combination with 10 μM API-2.
The test system of assay [5] is A2780CP cells. As to conditions: drug individually or combination of both drugs.
The subject of assay [6] is C-13 cells. As to conditions: C-13, drug individually or combination of both drugs.

The source of these data is patent US8828451B2, “Akt sensitization of cancer cells” (University of South Florida, priority 2006, dated 2014).

In the case of `CO[C@H]1C[C@@H]2CC[C@@H](C)[C@@](O)(O2)C(=O)C(=O)N2CCCC[C@H]2C(=O)O[C@H]([C@H](C)C[C@@H]2CC[C@@H](OCCO)[C@H](OC)C2)CC(=O)[C@H](C)/C=C(\C)[C@@H](O)[C@@H](OC)C(=O)[C@H](C)C[C@H](C)/C=C/C=C/C=C/1C` [RAD001], in assay [1], the “cell growth (cell numbers)” value is reported as “inhibited cell growth”. Moreover, the Akt phosphorylation entry in assay [2] (MCF-7) was “increased with longer exposure time”. The “phosphorylated S6” value in assay [2] (MCF-7, indicated time points) is given as “decreased with exposure”.
For the compound `[Cl][Pt+2][Cl].[NH2-].[NH2-]` [CDDP, cis-Diammine-dicholoroplatinum(II)], the “effect on cell survival” value in assay [3] and in assay [4] was “no significant effect on cell survival” throughout.
Turning to `CC(=O)O[C@H]1C(=O)[C@@]2(C)[C@H]([C@H](OC(=O)c3ccccc3)[C@]3(O)C[C@H](OC(=O)[C@H](O)[C@@H](NC(=O)c4ccccc4)c4ccccc4)C(C)=C1C3(C)C)[C@]1(OC(C)=O)CO[C@@H]1C[C@@H]2O` [Taxol], the “apoptosis (Capase-Glo 3/7)” value in assay [5] and in assay [6] was “increased apoptosis slightly” throughout.
